Experiments:
[1] = test system: oral mucositis induced by acute radiation; assay: Oral mucositis induced by acute radiation in hamsters (blinded mucositis scoring); type: in vivo, Syrian Golden Hamsters; design: key to peak mean mucositis score: 0 = normal, 5 = severe ulceration (photographic scale); settings: for % Days ≥ 3 / Days < 3 (animal days with mucositis score <3) / Days ≥ 3 (animal days with mucositis score ≥3): through Day 28
Text: The objective of the study was to test the efficacy of Nu-8 in the treatment of oral mucositis induced by acute radiation in hamsters.
Normal male Syrian Golden Hamsters (Charles River Laboratories), aged 5 to 6 weeks, with average body weight (±SD) of 92.83±3.36 g at study commencement, were used. Animals were individually numbered using an ear punch and housed in small groups. Animals were acclimatized prior to study commencement. During this period, the animals were observed daily in order to reject animals that were in poor condition.
Animals were randomly and prospectively divided into three (3) groups of eight (8) animals each prior to irradiation. Each animal was identified by an ear punch corresponding to an individual number. A cage card was used to identify each cage or label marked with the study number (LKW-01), treatment group number and animal numbers.
Formulation: • 1. Make fresh daily. Weigh out necessary amount of compound and dissolve in normal saline. Titrate with citric acid to bring pH of solution down to approximate 3.5 (pH range 3 to 4). • 2. The vehicle administered to animals in Group 1 was also titrated with citric acid to a pH of ˜3.5 (pH range 3 to 4).
Mucositis was induced using a single of radiation (40 Gy) administered on Day 0. Radiation was generated with a 160-kilovolt potential (18.75-ma) source at a focal distance of 10 cm, hardened with a 3.0 mm Al filtration system. Irradiation targeted the left buccal pouch mucosa at a rate of 2-2.5 Gy/minute. Prior to irradiation, animals were anesthetized with an intraperitoneal injection of ketamine (160 mg/kg) and xylazine (8 mg/kg). The left buccal pouch was everted, fixed and isolated using a lead shield.
Starting on Day 6 and continuing every second day thereafter (Days 8, 10, 12, 14, 16, 18, 20, 22, 24, 26, 28) each animal was photographed and evaluated for mucositis scoring. For the evaluation of mucositis, the animals were anesthetized with an inhalation anesthetic and the left pouch everted. Mucositis was scored visually by comparison to a validated photographic scale (FIGS. 1A-1F), ranging from 0 for normal, to 5 for severe ulceration (clinical scoring). In descriptive terms, this scale is defined as follows: […]
A score of 1-2 is considered to represent a mild stage of the disease, whereas a score of 3-5 is considered to indicate moderate to severe ulcerative mucositis. Following visual clinical scoring, a photograph was taken of each animal's mucosa using a standardized technique. At the conclusion of the experiment, the photographs were randomly numbered and scored by two independent, trained observers who graded the images in blinded fashion using the above-described scale (blinded scoring). For each photograph, the actual blinded score was based on the average of the 2 observers' scores. Only the scores from the blinded, photographic evaluation were reported and used for statistical analyses. Hamsters reaching a mucositis severity score of 4 or higher received buprenorphine (0.5 mg/kg) SC twice a day for 48 hours or until score dropped below 4. Statistical Analyses
Using the blinded photographs, statistical differences between treatment groups were determined using Mann-Whitney Rank Sum test and chi-square analysis with a critical value of 0.05. It was anticipated that up to 10% animal death may occur, primarily as a result of the administration of anesthetics. However, the number of animals expected to remain alive at Day 28 (6 per treatment group) was considered acceptable for statistical evaluation.
The difference in the number of days hamsters in each group have severe mucositis (score ≥3) was analyzed. On each day the animals were scored (evaluation day), the number of animals with a blinded mucositis score of ≥3 in each treatment group was compared to the Vehicle control group. Differences were analyzed on a daily as well as a cumulative basis. […]

[2] = Mean daily percent body weight change in irradiated hamsters; type: in vivo, Syrian Golden Hamsters; settings: Group 3 (10% Nu-8, TID topical); p<0.05
Text: The mean daily percent body weight change data are shown in FIG. 2 for animals in all groups. Animals steadily gained weight throughout the duration of the study.

Compound: CCCCOP(=O)(O)OC[C@H]1O[C@@H](n2ccc(N)nc2=O)C[C@@H]1OP(=O)(O)OCCCC [Nu-8, ((2R,3S,5R)-5-(4-amino-2-oxopyrimidin-1(2H)-yl)-3-((butoxyoxidophosphor-yl)oxy)tetrahydrofuran-2-yl)methyl butyl phosphate]
- days of significant improvement in mucositis scores vs. Vehicle (Mann-Whitney rank sum) ([1]; 1% Nu-8 (Group 2)): one day of significant improvement
- Chi Sq vs. Vehicle (animal days with score ≥3) ([1]; 1% Nu-8, TID topical): 2.094
- Percent Ulceration by Day (Score ≥ 3) ([1]; 1% Nu-8, TID topical, Day 6): 0.0%
- Percent Ulceration by Day (Score ≥ 3) ([1]; 1% Nu-8, TID topical, Day 8): 0.0%
- Percent Ulceration by Day (Score ≥ 3) ([1]; 1% Nu-8, TID topical, Day 10): 0.0%
- Percent Ulceration by Day (Score ≥ 3) ([1]; 1% Nu-8, TID topical, Day 12): 0.0%
- Percent Ulceration by Day (Score ≥ 3) ([1]; 1% Nu-8, TID topical, Day 14): 12.5%
- Percent Ulceration by Day (Score ≥ 3) ([1]; 1% Nu-8, TID topical, Day 16): 50.0%
- Percent Ulceration by Day (Score ≥ 3) ([1]; 1% Nu-8, TID topical, Day 18): 87.5%
- Percent Ulceration by Day (Score ≥ 3) ([1]; 1% Nu-8, TID topical, Day 20): 87.5%
- Percent Ulceration by Day (Score ≥ 3) ([1]; 1% Nu-8, TID topical, Day 22): 87.5%
- Percent Ulceration by Day (Score ≥ 3) ([1]; 1% Nu-8, TID topical, Day 24): 87.5%
- Percent Ulceration by Day (Score ≥ 3) ([1]; 1% Nu-8, TID topical, Day 26): 50.0%
- Percent Ulceration by Day (Score ≥ 3) ([1]; 1% Nu-8, TID topical, Day 28): 25.0%
- peak mean mucositis score ([1]; 1% Nu-8, TID topical, on Day 18): 2.88±0.13
- % Days ≥ 3 ([1]; 1% Nu-8, TID topical): 40.63%
- Days < 3 (animal days with mucositis score <3) ([1]; 1% Nu-8, TID topical): 57
- Days ≥ 3 (animal days with mucositis score ≥3) ([1]; 1% Nu-8, TID topical): 39
- days of significant improvement in mucositis scores vs. Vehicle (Mann-Whitney rank sum) ([1]; 10% Nu-8 (Group 3)): multiple days of significant improvement
- Chi Sq vs. Vehicle (animal days with score ≥3) ([1]; 10% Nu-8, TID topical): 30.762
- disease severity in comparison to vehicle-dosed animals ([1]; 10% Nu-8, TID topical): robust mitigation of disease severity
- Percent Ulceration by Day (Score ≥ 3) ([1]; 10% Nu-8, TID topical, Day 6): 0.0%
- Percent Ulceration by Day (Score ≥ 3) ([1]; 10% Nu-8, TID topical, Day 8): 0.0%
- Percent Ulceration by Day (Score ≥ 3) ([1]; 10% Nu-8, TID topical, Day 10): 0.0%
- Percent Ulceration by Day (Score ≥ 3) ([1]; 10% Nu-8, TID topical, Day 12): 0.0%
- Percent Ulceration by Day (Score ≥ 3) ([1]; 10% Nu-8, TID topical, Day 14): 12.5%
- Percent Ulceration by Day (Score ≥ 3) ([1]; 10% Nu-8, TID topical, Day 16): 25.0%
- Percent Ulceration by Day (Score ≥ 3) ([1]; 10% Nu-8, TID topical, Day 18): 25.0%
- Percent Ulceration by Day (Score ≥ 3) ([1]; 10% Nu-8, TID topical, Day 20): 25.0%
- Percent Ulceration by Day (Score ≥ 3) ([1]; 10% Nu-8, TID topical, Day 22): 25.0%
- Percent Ulceration by Day (Score ≥ 3) ([1]; 10% Nu-8, TID topical, Day 24): 12.5%
- Percent Ulceration by Day (Score ≥ 3) ([1]; 10% Nu-8, TID topical, Day 26): 0.0%
- Percent Ulceration by Day (Score ≥ 3) ([1]; 10% Nu-8, TID topical, Day 28): 0.0%
- peak mean mucositis score ([1]; 10% Nu-8, TID topical, on Days 16 & 18): 2.29±0.18
- % Days ≥ 3 ([1]; 10% Nu-8, TID topical): 11.90%
- Days < 3 (animal days with mucositis score <3) ([1]; 10% Nu-8, TID topical): 74
- Days ≥ 3 (animal days with mucositis score ≥3) ([1]; 10% Nu-8, TID topical): 10
- percentage of days with a score of ≥3 in comparison to the Vehicle control group ([1]; 10% Nu-8, chi-square analysis): statistically different
- percent ulceration in comparison to vehicle-dosed animal ([1]; both dose concentrations (1% and 10%), numerous days): percent ulceration that was lower in comparison to vehicle-dosed animal
- disease onset (mean daily mucositis scores) ([1]; both groups treated with Nu-8 (1% and 10%), more so with 10%): modest attenuation of disease onset
- mean percent weight change vs. vehicle group (AUC analysis, one-way ANOVA) [2]: statistically significant lower mean percent weight change

Reference: US11123357B2, “Methods and compositions for treating oral mucositis” (Lakewood Amedex, Inc., priority 2018, dated 2021)
